Where a SMILES comes first, the peptide text is derived from it. Bridges are numbered along the chain shown (N, C = ends).
Columns and labels:
[1] = system: VIPR2 activation-induced phosphorylation of CREB; test: Western blot of pCREB in prefrontal cortex of adult mice after i.n. injection; type: in vivo; conditions: mice at 8 weeks, KS-133 20 nmol/mouse i.n. with BAY 55-9837 20 µg/mouse, 45 min after injection
Experimental: For western blot analysis, ICR neonatal mice at P12 (7–10 g body weight) were subcutaneously (s.c.) injected with KS-133 (1 nmol/g) and Ro 25-1553 (0.4 nmol/g, Peptide Institute, Inc. Osaka, Japan), a selective VIPR2 agonist ([Gourlet et al., 1997]; [Harmar et al., 2012]), and adult C57BL/6J mice at 8 weeks of age (20–30 g body weight) were intranasally (i.n.) injected with KS-133 (20 nmol/mouse) and BAY 55-9837 (20 µg/mouse, Tocris Bioscience, Bristol, United Kingdom), another selective VIPR2 agonist ([Tsutsumi et al., 2002]; [Tian et al., 2019]). The dosages of these drugs were determined in a preliminary experiment using the change in phosphorylation of cAMP-response element-binding protein (CREB) as an index. Ro 25-1553 was dissolved in phosphate-buffered saline (PBS) and BAY 55-9837 was dissolved in distilled water. KS-133 was dissolved in saline with 1% dimethyl sulfoxide (DMSO; #13445-74, Nacalai Tesque, Inc., Kyoto, Japan) for s.c. injection or saline with 5% DMSO and 5 mg/ml poly-L-arginine (#P7762, Sigma-Aldrich, St. Louis, MO, United States) for i.n. injection. […]
FIGURE 4 Effects of subcutaneous (A) and intranasal (B) administration of KS-133 on VIPR2 activation-induced phosphorylation of CREB in the prefrontal cortex of mice. Phospho-CREB (pCREB), total CREB, and β-actin levels were analyzed by western blotting. […]

[2] = Peptide stability in rat plasma (RP-HPLC); type: in vitro ADME
Experimental: Each peptide (10 mM, 1 μl) was incubated with rat plasma (20 μl) prepared in-house. Immediately after mixing with plasma and after 24 h of incubation at 37°C, 80% acetonitrile (200 μl) was added to extract VIpep-3 and acetonitrile (200 μl) was added to extract KS-132, KS-133(monocyclic), and KS-133. The mixture was stored for 10 min on ice and then centrifuged at 20,000 × g for 10 min at 4°C. The supernatant was recovered and directly applied to RP-HPLC to determine the remaining amount of unmodified peptides in the sample.
The stability of peptides was evaluated in rat plasma. A peptide was incubated in rat plasma at 37°C for 0 and 24 h and the remaining amount of peptide was determined by RP-HPLC. By comparison with the peak area of the peptide, the remaining amount of the peptide after plasma incubation was estimated. […] KS-133(monocyclic) may form a pseudo bicyclic structure by ionic bond interaction between side chains of Lys and Asp.

[3] = rat plasma, immediately after mixing

CC[C@H](C)[C@H](NC(=O)[C@H](CC(C)C)NC(=O)[C@@H]1CC(=O)NCCCC[C@@H]2NC(=O)[C@@H]3CCCN3C(=O)[C@H](CC(C)C)NC(=O)[C@H](Cc3ccc(O)cc3)NC(=O)[C@@H]3CCCN3C(=O)[C@@H]3CCCN3C(=O)[C@@H](NC(C)=O)CSSC[C@H](NC(=O)[C@H](CC(C)C)NC(=O)[C@H](Cc3ccc(O)cc3)NC2=O)C(=O)N1)C(N)=O [KS-133, Ac-c[Cys-Pro-Pro-Tyr-Leu-Pro-c(Lys-Tyr-Leu-Cys]-Asp)-Leu-Ile-NH2] (Ac-CPPYLPKYLCDLI-NH2; disulfide 1-10; lactam 7-11)
Effect on BAY 55-9837-induced increase in phosphorylated CREB [1]: blocked | Stability in rat plasma ([2]; 37°C, 24 h): highly stable for at least up to 24 h | RP-HPLC peak area, Input (NT) ([2]; no plasma treatment): 161695 | RP-HPLC peak area, incubation time 24 h ([2]; rat plasma, 37°C, 24 h): 163537 | remaining at 24 h, 0.476 mM ([2]; rat plasma, 37°C, 24 h, read-out: Residual rate, incubation time 24 h): 99% | RP-HPLC peak area, immediately after mixing [2, 3]: 165254 | Residual rate, immediately after mixing [2, 3]: 100%
